Each block holds one compound with its values, some of them ahead of it. Peptide text beside a SMILES is read from it. * marks the point of attachment. Cbz = O=C(OCc1ccccc1)*
Tests used:
GLP-1 = GLP-1 (Homo sapiens, UniProt P01275); assay: Oxaziridine screening on peptides: GLP-1 (Q-TOF); type: biochemical; settings: GLP-1 (50 μM), oxaziridine (300 μM)
Procedure: Peptides were dissolved in 5% DMSO solution. […] The labeled peptides were subjected to Q-TOF analysis with a Proswift RP-4H (monolithic phenyl, 1.0 mm×50 mm, Dionex) column. The Solvent A was MilliQ water with 0.1% (v/v) formic acid, while the Solvent B was ACN with 0.1% (v/v) formic acid. The LC system was set at the 0.30 mL/min with a gradient of 5-100% solvent B in solvent A over 8 min. MassHunter Quantitative Analysis Version software was used for ion chromatogram extraction and Maximum Entropy deconvolution.

HEK 293T cell lysates = assay: Activity-based protein profiling (ABPP) of hyperreactive tryptophan sites; type: biochemical, human; settings: identified in more than two replicates
Excerpt: We next moved on to apply Trp-CLiC at the whole proteome level, specifically to identify new functional tryptophan sites in cells using activity-based protein profiling (ABPP).
From the ABPP studies with the Trp-CLiC method, 190 unique hyperreactive tryptophan sites from 151 probe-modified proteins were identified in more than two replicates. These Ox-W18-labeled tryptophan sites were found in many classes of proteins, including enzymes, chaperones, and nucleoproteins, as well as many structural proteins. Meanwhile, we noticed that many targets are classified as non-druggable and highly enriched in diverse phase-separated compartments, such as the nucleolus, nuclear body, paraspeckle and stress granule. […] For example, the hyperreactive W196 site identified on GAPDH, W346 site found on TBA1B, and W324 and W148 on LDHA enzyme are the most surface-exposed tryptophan residues in these proteins, whereas other tryptophan residues were not probed. […] GAPDH and TBA1B were chosen as representative examples to showcase the Trp-CLiC method for ABPP. […] We then sought to further investigate the character of probed solvent-accessible tryptophan sites by performing motif analysis. […] Lysine is hydrophilic and has the capacity to form cation-π interactions with the indole tryptophan ring, providing a potential pathway for stabilizing hydrophobic tryptophan residues being surface-exposed (38, 39). […]

GAPDH and TBA1B = GAPDH and TBA1B labeling by Western Blot; type: biochemical
Excerpt: From the ABPP studies with the Trp-CLiC method, 190 unique hyperreactive tryptophan sites from 151 probe-modified proteins were identified in more than two replicates. These Ox-W18-labeled tryptophan sites were found in many classes of proteins, including enzymes, chaperones, and nucleoproteins, as well as many structural proteins. Meanwhile, we noticed that many targets are classified as non-druggable and highly enriched in diverse phase-separated compartments, such as the nucleolus, nuclear body, paraspeckle and stress granule. […] For example, the hyperreactive W196 site identified on GAPDH, W346 site found on TBA1B, and W324 and W148 on LDHA enzyme are the most surface-exposed tryptophan residues in these proteins, whereas other tryptophan residues were not probed. […] GAPDH and TBA1B were chosen as representative examples to showcase the Trp-CLiC method for ABPP. […] We then sought to further investigate the character of probed solvent-accessible tryptophan sites by performing motif analysis. […] Lysine is hydrophilic and has the capacity to form cation-π interactions with the indole tryptophan ring, providing a potential pathway for stabilizing hydrophobic tryptophan residues being surface-exposed (38, 39).

lysozyme = lysozyme (Gallus gallus, UniProt P00698); assay: Lysozyme labelling with Ox-W18 (A260/A280 ratio, LC-MS/MS); settings: native folded conditions
Sequence of lysozyme (P00698 19-147): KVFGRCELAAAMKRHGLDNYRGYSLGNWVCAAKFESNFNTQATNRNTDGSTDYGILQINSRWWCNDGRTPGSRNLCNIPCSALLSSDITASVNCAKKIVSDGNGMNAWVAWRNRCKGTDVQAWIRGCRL

IL8 = molecular target: T1, IL8 (Homo sapiens, UniProt P10145); assay: Protein labelling with N-sulfonyl oxaziridine: IL8 (LC-MS/MS); settings: native vs denaturant-treated IL8
T1 sequence (P10145 21-99): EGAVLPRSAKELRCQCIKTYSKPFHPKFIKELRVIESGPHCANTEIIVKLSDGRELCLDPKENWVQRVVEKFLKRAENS

HeLa cells = assay: Unfolding stress detection in living cells (desthiobiotin oxaziridine labeling, Western blot against biotin); type: cell-based; settings: HeLa cells treated 8 hours, lysate labeled with desthiobiotin oxaziridine (250 μM)
Excerpt: In another application, we used Trp-CLiC as a general method to probe stress-induced protein unfolding. Indeed, under various environmental stresses, folded proteins will expose more hydrophobic residues as they unfold, and accumulation and aggregation of unfolded proteins is regarded as a signal of loss of proteostasis (34-37). Owing to its sterically demanding and hydrophobic properties, tryptophan residues are more likely to be buried in protein cores. We reasoned that this oxidative cyclization method could enable monitoring of increases in solvent accessibility of buried tryptophan residues during stress-induced protein unfolding. To test this hypothesis, we labeled lysozyme as a model protein in the presence of varying concentrations of guanidinium chloride (GdmCl) as a denaturant. […] We then used Trp-CLiC to monitor stress-induced protein unfolding in whole cell proteomes. HeLa cells were treated with the proteasome inhibitor MG-132, the ER stress inducer Tunicamycin to trigger unfolded protein stress responses, or vehicle control, then lysed and labeled with N-sulfonyl oxaziridine linked to desthiobiotin.
HeLa cells were treated with MG-132 (5 μg/ml) or Tunicamycin (5 μM) for 8 hours. Then cells were harvested and lysed in PBS buffer (1% Triton, with protease inhibitors). […] The labeling results were detected by Western blot analysis against biotin.

[1] = Selectivity and reactivity of Ac-Trp-OMe with N-sulfonyl oxaziridines (LC-MS); settings: for selectivity for the indole cycloadduct product: library screen with Ac-Trp-OMe
Procedure: Initial reactivity studies with the N-sulfonyl oxaziridine Ox-W1 and N-acetyl-L-tryptophan methyl ester (Ac-Trp-OMe) were then performed in PBS/organic solvent mixture for 10 min at room temperature and subjected to liquid chromatography-mass spectrometry (LC-MS) analysis. Tryptophan reacted with a ˜50% conversion. Two major products were observed: the desired indole cycloadduct and hydroxyl tryptophan. The cycloadduct was generated with 28% yield, consistent with simple indoles that can react with such oxaziridines in organic solution (28). […] We then synthesized and screened a library of 20 different oxaziridines for Trp-CLiC chemistry; Ox-W10, Ox-W17, and Ox-W19 emerged as the top lead candidates with improved ˜90% selectivity and high reactivity for the indole cycloadduct product, with a measured reaction rate of 24.9±1.3M^−1 s^−1 that is on par with click chemistry reactions (29-31).
A stock solution of Ac-Trp-OMe (100 mM) in MeOH was mixed with oxaziridine (100 mM) in MeOH (v/v ratio=1:1.2), followed by the immediate addition of PBS (1 volume equiv. to make 1:1 PBS/MeOH). For some oxaziridines with low solubility, the reaction was performed in PBS/MeOH/MeCN (1:1:1) co-solvent. […] It is important the initial stock solutions of Ac-Trp-OMe and oxaziridine are fully homogeneous prior to mixing.
For LC-MS analysis, solvent A was water and solvent B was methanol. The linear gradient was 40-100% B in 6.5 min and 100% B for 1.5 min.

[2] = Reaction of oxaziridine with methionine
[3] = Kinetics of the Trp-CLiC reaction (absorbance at 280 nm, UV-Vis); settings: PBS buffer, 25° C.
Procedure: For kinetics study of the Trp-CLiC reaction, the absorbance at 280 nm was time-dependently monitored by UV-Vis upon adding Ox-W18 (50 μM) into different concentrations of Ac-Trp-OMe (500 μM, 550 μM and 600 μM) in PBS buffer at 25° C. Then the second-order reaction rate constant could be obtained.

[4] = Ac-Trp-OMe, PBS/organic solvent mixture, 10 min, room temperature

Sequence of GLP-1 (P01275 92-128 limits assumed): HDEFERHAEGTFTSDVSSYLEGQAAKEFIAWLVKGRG

conversion (GLP-1): quantitative
cycloadduct yield (GLP-1): 74%
A260/A280 ratio (lysozyme): 0.80
Compound: C#CCN(C)S(=O)(=O)N1OC1c1ccccc1[N+](=O)[O-] (stereo not drawn) [Ox-W18]
probe-modified proteins identified (HEK 293T cell lysates): 151
unique hyperreactive tryptophan sites identified (HEK 293T cell lysates): 190
GAPDH and TBA1B labeling with increased probe addition (GAPDH and TBA1B): more GAPDH and TBA1B labeling
modification of the partially buried tryptophan site (IL8): modified only after treatment with a denaturant

Compound: Tunicamycin
desthiobiotin staining signal vs vehicle control (HeLa cells): more desthiobiotin staining signal

Compound: CS(=O)(=O)N1OC1c1ccccc1 (stereo not drawn) [Ox-W1]
Tryptophan conversion [1, 4]: ~50%
indole cycloadduct yield [1, 4]: 28%
product of reaction with methionine [2]: traceless methionine sulfoxide adduct

Compound: CC(C)C[C@@H](C=O)NC(=O)[C@H](CC(C)C)NC(=O)[C@H](CC(C)C)NC(=O)OCc1ccccc1 [MG-132] (Cbz-Leu-Leu-Leu-aldehyde)
desthiobiotin staining signal vs vehicle control (HeLa cells): more desthiobiotin staining signal

Compound: C#Cc1ccc(S(=O)(=O)N2OC2c2ccccc2[N+](=O)[O-])cc1 (stereo not drawn) [Ox-W17]
selectivity for the indole cycloadduct product [1]: ~90%
measured reaction rate (second-order rate constant) [3]: 24.9 ± 1.3 M⁻¹ s⁻¹

Compound: C#CCN(C)S(=O)(=O)N1OC1c1ccc([N+](=O)[O-])cc1[N+](=O)[O-] (stereo not drawn) [Ox-W19]
selectivity for the indole cycloadduct product [1]: ~90%
measured reaction rate (second-order rate constant) [3]: 24.9 ± 1.3 M⁻¹ s⁻¹

Compound: COc1ccc(S(=O)(=O)N2OC2c2ccc([N+](=O)[O-])cc2[N+](=O)[O-])cc1 (stereo not drawn) [Ox-W10]
selectivity for the indole cycloadduct product [1]: ~90%
measured reaction rate (second-order rate constant) [3]: 24.9 ± 1.3 M⁻¹ s⁻¹
